Tested on: influenza B virus
Test: microbe, parasite or virus in culture
Format: cell-based
Settings: MDCK, 72 h, read-out: EC50 (reduce virus-induced CPE by 50%)

O=C1c2c(O)c(=O)ccn2N(C2c3ccccc3SCc3c2ccc(Cl)c3F)CC12CC2 (stereo not drawn) [Compound 19]
EC50: 100 to 1000 nM

O=C1c2c(O)c(=O)ccn2N(C2c3ccc(F)cc3COc3c(Cl)cccc32)CC12CC2 (stereo not drawn) [Compound 15]
EC50: < 100 nM

O=C1c2c(O)c(=O)ccn2N(C2c3ccccc3SCc3cccc(Br)c32)CC12CC2 (stereo not drawn) [Compound 29]
EC50: 100 to 1000 nM

O=C1c2c(O)c(=O)ccn2N(C2c3ccc(F)cc3CSc3ccccc32)CC12CC2 (stereo not drawn) [Compound 8]
EC50: < 100 nM

O=C1c2c(O)c(=O)ccn2N(C2c3ccc(Cl)cc3CSc3ccccc32)CC12CC2 (stereo not drawn) [Compound 4]
EC50: < 100 nM

O=C1c2c(O)c(=O)ccn2N(C2c3ccccc3SCc3c(F)cccc32)CC12CC2 (stereo not drawn) [Compound 1, 1-(1-Fluoro-5,11-dihydro-10-thia-dibenzo[a,d]cyclohepten-5-yl)-5-hydroxy-3,3-cyclopropyl-2,3-dihydro-1H-pyrido[1,2-b]pyridazine-4,6-dione]
EC50: 100 to 1000 nM

CC1CC12CN(C1c3ccc(F)c(F)c3CSc3c(F)cccc31)n1ccc(=O)c(O)c1C2=O (stereo not drawn) [Compound 35]
EC50: < 100 nM

Cc1cc(=O)c(O)c2n1N(C1c3ccc(F)c(F)c3CSc3c(F)cccc31)CC1(CC1)C2=O (stereo not drawn) [Compound 30]
EC50: 100 to 1000 nM

CC1CC12CN(C1c3ccccc3SCc3c1ccc(F)c3F)n1ccc(=O)c(O)c1C2=O (stereo not drawn) [Compound 20]
EC50: 100 to 1000 nM

O=C1c2c(O)c(=O)ccn2N(C2c3ccc(F)c(F)c3CSc3c(Cl)cccc32)CC12CC2 (stereo not drawn) [Compound 18]
EC50: 100 to 1000 nM

Cc1cccc2c1SCc1cc(F)ccc1C2N1CC2(CC2)C(=O)c2c(O)c(=O)ccn21 (stereo not drawn) [Compound 7]
EC50: < 100 nM

CC1N(C2c3ccc(F)c(F)c3CSc3c(F)cccc32)n2ccc(=O)c(O)c2C(=O)C12CC2 (stereo not drawn) [Compound 26]
EC50: 100 to 1000 nM

O=C1c2c(O)c(=O)ccn2N(C2c3ccc(F)cc3CSc3c(Cl)cccc32)CC12CC2 (stereo not drawn) [Compound 3]
EC50: < 100 nM

O=C1c2c(O)c(=O)ccn2N(C2c3ccc(Cl)cc3CSc3c(F)cccc32)CC12CC2 (stereo not drawn) [Compound 14]
EC50: < 100 nM

Cc1cccc2c1SCc1c(ccc(F)c1F)C2N1CC2(CC2)C(=O)c2c(O)c(=O)cc(C)n21 (stereo not drawn) [Compound 31]
EC50: 100 to 1000 nM

O=C1c2c(O)c(=O)ccn2N(C2c3cccc(F)c3CSc3c(Cl)cccc32)CC12CC2 (stereo not drawn) [Compound 12]
EC50: 100 to 1000 nM

O=C1c2c(O)c(=O)ccn2N(C2c3ccc(F)c(F)c3CSc3c(F)cccc32)CC12CC2 (stereo not drawn) [Compound 17]
EC50: < 100 nM

Cc1cc(=O)c(O)c2n1N(C1c3ccccc3SCc3c1ccc(F)c3F)CC1(CC1)C2=O (stereo not drawn) [Compound 28]
EC50: 100 to 1000 nM

O=C1c2c(O)c(=O)ccn2N(C2c3ccccc3SCc3c2ccc(F)c3F)CC12CC2 (stereo not drawn) [Compound 2]
EC50: < 100 nM

O=C1c2c(O)c(=O)ccn2N(C2c3ccc(Cl)c(F)c3CSc3c(Cl)cccc32)CC12CC2 (stereo not drawn) [Compound 23]
EC50: 100 to 1000 nM

CC1N(C2c3ccccc3SCc3c2ccc(F)c3F)n2ccc(=O)c(O)c2C(=O)C12CC2 (stereo not drawn) [Compound 21]
EC50: 100 to 1000 nM

Cc1cccc2c1SCc1c(ccc(F)c1F)C2N1CC2(CC2)C(=O)c2c(O)c(=O)ccn21 (stereo not drawn) [Compound 16]
EC50: 100 to 1000 nM

CCC1CC12CN(C1c3ccccc3SCc3c1ccc(F)c3F)n1ccc(=O)c(O)c1C2=O (stereo not drawn) [Compound 37]
EC50: < 100 nM

C=CC1N(C2c3ccccc3SCc3c2ccc(F)c3F)n2ccc(=O)c(O)c2C(=O)C12CC2 (stereo not drawn) [Compound 25]
EC50: 100 to 1000 nM

O=C(O)C1CC12CN(C1c3ccccc3SCc3c1ccc(F)c3F)n1ccc(=O)c(O)c1C2=O (stereo not drawn) [Compound 33]
EC50: 100 to 1000 nM

O=C1c2c(O)c(=O)ccn2N(C2c3ccccc3CSc3c(Cl)cccc32)CC12CC2 (stereo not drawn) [Compound 13]
EC50: 100 to 1000 nM

Cc1cccc2c1SCc1cc(Cl)ccc1C2N1CC2(CC2)C(=O)c2c(O)c(=O)ccn21 (stereo not drawn) [Compound 6]
EC50: 100 to 1000 nM

CCOC(=O)C1CC12CN(C1c3ccccc3SCc3c1ccc(F)c3F)n1ccc(=O)c(O)c1C2=O (stereo not drawn) [Compound 32]
EC50: 100 to 1000 nM

Cc1cccc2c1SCc1c(F)cccc1C2N1CC2(CC2)C(=O)c2c(O)c(=O)ccn21 (stereo not drawn) [Compound 10]
EC50: 100 to 1000 nM

[2H]c1c([2H])c([2H])c2c(c1[2H])SCc1c(ccc(F)c1F)[C@@H]2N1CC2(CC2)C(=O)c2c(O)c(=O)ccn21 [Compound 39]
EC50: < 100 nM

COCC1CC12CN(C1c3ccccc3SCc3c1ccc(F)c3F)n1ccc(=O)c(O)c1C2=O (stereo not drawn) [Compound 38]
EC50: < 100 nM

Cc1cccc2c1SCc1c(ccc(F)c1F)C2N1CC2(CC2C)C(=O)c2c(O)c(=O)ccn21 (stereo not drawn) [Compound 36]
EC50: 100 to 1000 nM

CCC1N(C2c3ccccc3SCc3c2ccc(F)c3F)n2ccc(=O)c(O)c2C(=O)C12CC2 (stereo not drawn) [Compound 22]
EC50: 100 to 1000 nM

Cc1cccc2c1SCc1c(ccc(F)c1F)C2N1C(C)C2(CC2)C(=O)c2c(O)c(=O)ccn21 (stereo not drawn) [Compound 27]
EC50: 100 to 1000 nM

O=C1c2c(O)c(=O)ccn2N(C2c3ccccc3CSc3c(F)cccc32)CC12CC2 (stereo not drawn) [Compound 9]
EC50: < 100 nM

O=C1c2c(O)c(=O)ccn2N(C2c3ccccc3SCc3c2ccc(F)c3F)CC12CC2COCc1ccccc1 (stereo not drawn) [Compound 34]
EC50: 100 to 1000 nM

O=C1c2c(O)c(=O)ccn2N(C2c3ccc(Cl)c(F)c3CSc3c(F)cccc32)CC12CC2 (stereo not drawn) [Compound 24]
EC50: < 100 nM

Cc1cccc2c1SCc1ccccc1C2N1CC2(CC2)C(=O)c2c(O)c(=O)ccn21 (stereo not drawn) [Compound 11]
EC50: 100 to 1000 nM

O=C1c2c(O)c(=O)ccn2N(C2c3ccc(F)cc3CSc3c(F)cccc32)CC12CC2 (stereo not drawn) [Compound 5]
EC50: < 100 nM
